Key:
Assay type in all cases: in vivo
[1] = system: common cocklebur (Xanthium strumarium); assay: Test Example 2: foliar application in greenhouse pots, herbicidal activity; parameters: key: “0” means that there was no or little difference in the degree of germination or growth between the treated and the untreated tested plants at the time of examination; “10” means that the test plants died completely or their germination or growth was completely inhibited; settings: index 0 to 10, 10 days after application
Method: (§1) The evaluation of phytotoxicity is as follows:
(§2) Plastic pots having a diameter of 11 cm and a depth of 8 cm were filled with upland soil, and seeded with common cocklebur (Xanthium strumarium) . The test plants were grown in a greenhouse for 5 days. After that, corn was further seeded in each of the above pots and the test plants were grown in the greenhouse for further 16 days. Emulsifiable concentrate comprising compound A or Comparative compound obtained by well mixing 5 parts of compound A or Comparative compound, 6 parts of Sorpol 3005X (produced by Toho Chemical Industry, Co., Ltd.) and 89 parts of xylene was diluted with prescribed amount of water, and the dilution was applied over the test plants uniformly using a small sprayer. The leaf stage of the corns grown for 16 days were 2-leaf stage. After the application, the test plants were grown in the greenhouse for 10 days and then, herbicidal activity and phytotoxicity to corn were examined.

[2] = system: corn; assay: Test Example 2: phytotoxicity to corn; parameters: key: No harm: Phytotoxicity is hardly seen.; Slight phytotoxicity which does not affect the growth of corn is seen.; Light phytotoxicity and light growth inhibition of corn are seen.; Middle phytotoxicity and growth inhibition of corn are seen.; Serious phytotoxicity and serious growth inhibition of corn are seen; settings: corn at 2-leaf stage, 10 days after application
Method: as §1
(§3) No harm: Phytotoxicity is hardly seen.
(§4) Light: Light phytotoxicity and light growth inhibition of corn are seen.
(§5) Middle: Middle phytotoxicity and growth inhibition of corn are seen.
(§6) Serious: Serious phytotoxicity and serious growth inhibition of corn are seen.
as §2

[3] = system: ivyleaf morningglory (Ipomoea hederacea); assay: Test Example 1: foliar application in greenhouse pots, herbicidal activity; parameters: key: “0” means that there was no or little difference in the degree of germination or growth between the treated and the untreated tested plants at the time of examination; “10” means that the test plants died completely or their germination or growth was completely inhibited; settings: index 0 to 10, 10 days after application
Method: as §1
(§7) Plastic pots having a diameter of 11 cm and a depth of 8 cm were filled with upland soil, and seeded with common lambsquarters (Chenopodium album), ivyleaf morningglory (Ipomoea hederacea), velvetleaf (Abutilon theophrasti), and corn. The test plants were grown in a greenhouse for 7 days. After that, other corn was further seeded in each of the above pots and the test plants were grown in the greenhouse for further 19 days. Emulsifiable concentrate comprising compound A obtained by well mixing 5 parts of compound A, 6 parts of Sorpol 3005X (produced by Toho Chemical Industry, Co., Ltd.) and 89 parts of xylene was diluted with prescribed amount of water, and the dilution was applied over the test plants uniformly using a small sprayer. The leaf stage of the corns grown for 26 days and 19 days were 2-leaf stage and 1-leaf stage, respectively. After the application, the test plants were grown in the greenhouse for 10 days and then, herbicidal activity and phytotoxicity to corn were examined.

[4] = system: common lambsquarters (Chenopodium album); assay: as above; parameters: key: “0” means that there was no or little difference in the degree of germination or growth between the treated and the untreated tested plants at the time of examination; “10” means that the test plants died completely or their germination or growth was completely inhibited; settings: index 0 to 10, 10 days after application
Method: as §1, §7

[5] = system: velvetleaf (Abutilon theophrasti); assay: as above; parameters: key: “0” means that there was no or little difference in the degree of germination or growth between the treated and the untreated tested plants at the time of examination; “10” means that the test plants died completely or their germination or growth was completely inhibited; settings: index 0 to 10, 10 days after application
Method: as §1, §7

[6] = system: corn; assay: Test Example 1: phytotoxicity to corn; parameters: key: No harm: Phytotoxicity is hardly seen.; Slight phytotoxicity which does not affect the growth of corn is seen.; Light phytotoxicity and light growth inhibition of corn are seen.; Middle phytotoxicity and growth inhibition of corn are seen.; Serious phytotoxicity and serious growth inhibition of corn are seen; settings: 10 days after application; for Phytotoxicity C1: corn at 1-leaf stage; for Phytotoxicity C2: corn at 2-leaf stage
Description: as §1, §3, §4, §5, §6, §7

## COC(=O)CSc1cc(-n2c(=O)cc(C(F)(F)F)n(C)c2=O)c(F)cc1Cl [Comparative compound, reference compound]
[1]; dosage 2.5 g/ha
  Herbicidal activity Cocklebur: 8
[1]; dosage 5 g/ha
  Herbicidal activity Cocklebur: 10
[1]; dosage 10 g/ha
  Herbicidal activity Cocklebur: 10
[2]; dosage 2.5 g/ha
  Phytotoxicity corn: No harm
[2]; dosage 5 g/ha
  Phytotoxicity corn: Slight
[2]; dosage 10 g/ha
  Phytotoxicity corn: light

## COC(=O)C(C)Oc1cc(-n2c(=O)cc(C(F)(F)F)n(C)c2=O)c(F)cc1Cl (stereo not drawn) [Compound A, methyl 2-[2-chloro-4-fluoro-5-{3-methyl-2,6-dioxo-4-(trifluoromethyl)-1,2,3,6-tetrahydropyrimidin-1-yl}phenoxy]propionate]
[1]; dosage 2.5 g/ha
  Herbicidal activity Cocklebur: 10
[1]; dosage 5 g/ha
  Herbicidal activity Cocklebur: 10
[1]; dosage 10 g/ha
  Herbicidal activity Cocklebur: 10
[2]; dosage 2.5 g/ha
  Phytotoxicity corn: No harm
[2]; dosage 5 g/ha
  Phytotoxicity corn: No harm
[2]; dosage 10 g/ha
  Phytotoxicity corn: No harm
[3]; dosage 5 g/ha
  Herbicidal activity Mo: 10
[3]; dosage 10 g/ha
  Herbicidal activity Mo: 10
[3]; dosage 20 g/ha
  Herbicidal activity Mo: 10
[4]; dosage 5 g/ha
  Herbicidal activity La: 9
[4]; dosage 10 g/ha
  Herbicidal activity La: 10
[4]; dosage 20 g/ha
  Herbicidal activity La: 10
[5]; dosage 5 g/ha
  Herbicidal activity Ve: 10
[5]; dosage 10 g/ha
  Herbicidal activity Ve: 10
[5]; dosage 20 g/ha
  Herbicidal activity Ve: 10
[6]; dosage 5 g/ha
  Phytotoxicity C1: No harm
  Phytotoxicity C2: No harm
[6]; dosage 10 g/ha
  Phytotoxicity C1: No harm
  Phytotoxicity C2: No harm
[6]; dosage 20 g/ha
  Phytotoxicity C1: Slight
  Phytotoxicity C2: No harm

Reference: patent publication US6372691B1, “Method for controlling weeds” (Sumitomo Chemical Company, Limited, priority 1999, dated 2002)
